# From paper PMC3033209 (Journal of applied microbiology, 2009)
# Target: T1, β-glucosidase from L. brevis SK3 (Levilactobacillus brevis, UniProt Q03P52)
# T1 sequence (Q03P52 1-751): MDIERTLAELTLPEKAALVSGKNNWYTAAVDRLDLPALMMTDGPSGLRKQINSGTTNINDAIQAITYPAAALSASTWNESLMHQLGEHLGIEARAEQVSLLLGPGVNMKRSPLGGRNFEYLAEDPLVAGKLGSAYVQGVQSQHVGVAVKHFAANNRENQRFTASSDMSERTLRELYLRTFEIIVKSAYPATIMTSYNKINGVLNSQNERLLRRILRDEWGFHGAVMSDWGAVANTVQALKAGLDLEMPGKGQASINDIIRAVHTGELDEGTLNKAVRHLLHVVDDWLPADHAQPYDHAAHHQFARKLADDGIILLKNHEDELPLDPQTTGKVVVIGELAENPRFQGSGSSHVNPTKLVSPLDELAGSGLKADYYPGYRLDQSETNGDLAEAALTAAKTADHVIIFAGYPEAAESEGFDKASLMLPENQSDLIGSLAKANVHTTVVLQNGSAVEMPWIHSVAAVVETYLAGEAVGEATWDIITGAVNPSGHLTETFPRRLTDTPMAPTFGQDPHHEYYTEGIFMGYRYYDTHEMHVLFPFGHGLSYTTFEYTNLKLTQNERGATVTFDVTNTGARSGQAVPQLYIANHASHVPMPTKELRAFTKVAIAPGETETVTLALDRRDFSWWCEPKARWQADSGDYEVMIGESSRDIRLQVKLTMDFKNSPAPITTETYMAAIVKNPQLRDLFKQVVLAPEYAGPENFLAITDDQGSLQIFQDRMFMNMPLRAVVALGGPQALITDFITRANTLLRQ
# Experiment: standard glucosidase assay, p-nitrophenol at […] nm after stop
# Type: biochemical
# Conditions: inhibitor, 10 mM pNPβGlc, pH 5.5, 37 °C, 10 min
Relative activity (%) (200000 µM),Relative activity (%) (10000 µM),SMILES
17,,O=C(O)[C@H](O)[C@@H](O)[C@H](O)[C@H](O)CO [Gluconic acid]
,14,O=C1O[C@H](CO)[C@@H](O)[C@H](O)[C@H]1O [Glucono-δ-lactone]
59,,OC[C@H]1OC(O)[C@H](O)[C@@H](O)[C@@H]1O (stereo partly drawn) [Glucose]
